This is an account of results in ChEMBL document CHEMBL3621070, “Design and synthesis of 2-phenylnaphthalenoids and 2-phenylbenzofuranoids as DNA topoisomerase inhibitors and antitumor agents” (Eur J Med Chem, 2015).

Activity calls are given as the source filed them. The calls are words filed in the database; no cut-off is given here.

Test [1] concerns MDA-MB-231. Put plainly: Inhibition of topoisomerase in human MDA-MB-231 cells assessed as ATM phosphorylation at Ser1981 residue at 10 uM after 24 hrs by western blot analysis. It counts as cell-based. (In western blotting, separated proteins are transferred to a membrane and probed.)
Test [2] deals with PC-3. Put plainly: Antiproliferative activity against human PC3 cells after 72 hrs by SRB assay. It counts as functional, cell-based. The note with it: PC-3, 72 h. In general terms: The SRB assay estimates cell density from bound dye.
In test [3] the test system is HepG2. As to the kind of experiment: Antiproliferative activity against human HepG2 cells after 72 hrs by SRB assay. It counts as functional, cell-based. To be noted: HepG2, 72 h.
Test [4] concerns MDA-MB-435. Put plainly: Antiproliferative activity against human MDA-MB-435 cells after 72 hrs by SRB assay. It is filed as functional, cell-based. To be noted: MDA-MB-435, 72 h.
Test [5] concerns MDA-MB-231. As to the kind of experiment: Antiproliferative activity against human MDA-MB-231 cells after 72 hrs by SRB assay. It is filed as functional, cell-based. To be noted: MDA-MB-231, 72 h.
Test [6] has as its system MDA-MB-231. As to the kind of experiment: Antiproliferative activity against human MDA-MB-231 cells assessed as growth inhibition at 10 uM after 72 hrs by SRB assay. It counts as functional. To be noted: MDA-MB-231, 72 h, read-out: GI.
Test [7] has as its system MDA-MB-435. Put plainly: Antiproliferative activity against human MDA-MB-435 cells assessed as growth inhibition at 10 uM after 72 hrs by SRB assay. It is filed as functional. The note with it: MDA-MB-435, 72 h, read-out: GI.
Test [8] has as its target DNA topoisomerase 2-alpha (Homo sapiens) (UniProt P11388). As to the kind of experiment: Inhibition of human recombinant topoisomerase 2alpha assessed as relaxation of pBR322 DNA at 100 uM after 30 mins by agarose gel electrophoresis.
The target is the same in test [9]. To be noted: 100 uM.
Description: Inhibition of human recombinant topoisomerase 2 alpha assessed as topoisomerase poison activity by measuring generation of linear DNA using circular supercoiled DNA at 100 uM by agarose gel electrophoresis
Test [10] has as its system Nucleic Acid. As to the kind of experiment: Induction of DNA intercalation in Escherichia coli pBR322 plasmid DNA assessed as supercoiled DNA formation at 100 uM after 1 hr by agarose gel electrophoresis. It is filed as nucleic-acid assay.
The test system of test [11] is Nucleic Acid. As to the kind of experiment: Induction of DNA intercalation in Escherichia coli pBR322 plasmid DNA assessed as supercoiled DNA formation at 10 ug/ml after 1 hr by agarose gel electrophoresis. It is filed as nucleic-acid assay.
The species named for test [12] is Bos taurus. Put plainly: Inhibition of calf thymus topoisomerase 1 assessed as relaxation of pBR322 DNA at 100 uM after 30 mins by agarose gel electrophoresis.

One may read the IC50 as the midpoint of a concentration-inhibition curve. Low readings indicate higher potency, high ones lower potency.

Chain of DNA topoisomerase 2-alpha (Homo sapiens) (P11388 whole entry): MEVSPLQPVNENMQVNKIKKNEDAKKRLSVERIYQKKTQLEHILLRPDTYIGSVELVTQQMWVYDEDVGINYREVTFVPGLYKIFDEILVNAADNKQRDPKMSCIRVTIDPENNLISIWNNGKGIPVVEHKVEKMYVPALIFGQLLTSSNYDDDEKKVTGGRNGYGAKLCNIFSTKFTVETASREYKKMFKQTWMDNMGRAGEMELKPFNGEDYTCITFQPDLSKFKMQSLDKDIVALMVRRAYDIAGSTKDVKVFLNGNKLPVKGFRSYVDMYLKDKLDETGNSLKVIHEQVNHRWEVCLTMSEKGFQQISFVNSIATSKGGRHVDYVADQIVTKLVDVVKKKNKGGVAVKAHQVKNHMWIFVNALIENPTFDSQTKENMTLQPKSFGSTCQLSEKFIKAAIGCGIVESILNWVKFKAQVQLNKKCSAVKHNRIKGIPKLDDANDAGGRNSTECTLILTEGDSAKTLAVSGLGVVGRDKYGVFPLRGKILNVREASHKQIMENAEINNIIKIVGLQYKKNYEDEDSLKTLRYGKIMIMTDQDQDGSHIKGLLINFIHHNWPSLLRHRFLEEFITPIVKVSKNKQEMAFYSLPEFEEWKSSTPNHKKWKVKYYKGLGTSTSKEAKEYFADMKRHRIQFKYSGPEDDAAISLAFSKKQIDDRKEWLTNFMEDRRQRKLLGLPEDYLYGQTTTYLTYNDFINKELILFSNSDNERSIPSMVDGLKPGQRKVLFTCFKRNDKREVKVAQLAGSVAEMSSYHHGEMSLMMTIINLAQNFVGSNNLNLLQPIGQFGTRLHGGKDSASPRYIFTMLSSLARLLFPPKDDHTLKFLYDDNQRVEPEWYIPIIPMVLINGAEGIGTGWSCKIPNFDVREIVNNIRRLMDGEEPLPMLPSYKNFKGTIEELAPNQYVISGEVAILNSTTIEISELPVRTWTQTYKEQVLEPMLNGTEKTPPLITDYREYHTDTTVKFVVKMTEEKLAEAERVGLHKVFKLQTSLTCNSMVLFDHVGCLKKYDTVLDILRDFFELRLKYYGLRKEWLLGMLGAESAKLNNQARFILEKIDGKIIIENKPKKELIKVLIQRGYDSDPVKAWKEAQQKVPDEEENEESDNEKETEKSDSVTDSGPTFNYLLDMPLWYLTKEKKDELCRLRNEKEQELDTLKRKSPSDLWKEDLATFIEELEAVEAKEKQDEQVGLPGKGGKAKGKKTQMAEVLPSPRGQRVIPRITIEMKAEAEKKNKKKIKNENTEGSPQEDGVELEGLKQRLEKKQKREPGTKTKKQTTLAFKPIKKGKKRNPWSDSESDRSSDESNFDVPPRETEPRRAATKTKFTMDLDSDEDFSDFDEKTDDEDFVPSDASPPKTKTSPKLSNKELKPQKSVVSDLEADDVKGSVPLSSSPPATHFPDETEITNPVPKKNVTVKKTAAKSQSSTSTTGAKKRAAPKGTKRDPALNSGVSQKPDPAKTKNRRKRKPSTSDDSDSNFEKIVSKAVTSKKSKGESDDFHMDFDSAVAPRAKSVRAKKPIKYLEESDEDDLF

Turning to `COc1cc([C@@H]2c3cc4c(cc3[C@@H](O[C@@H]3O[C@@H]5CO[C@@H](C)O[C@H]5[C@H](O)[C@H]3O)[C@H]3COC(=O)[C@H]23)OCO4)cc(OC)c1O` [ETOPOSIDE], the inhibition entry in [1], in test [8] and in test [9] was “Active” in each case. The IC50 in test [2] came out at 1 µM; in test [3], 30 µM; in test [4] it was 1.7 µM; in test [5], 3.6 µM. Further, the inhibition of growth at 10 µM in test [6] is 71%; in test [7], 96.1%.
Take `O=[N+]([O-])c1cccc(-c2cc3cc([N+](=O)[O-])ccc3o2)c1`: the values for the inhibition of growth at 10 µM in test [6] and in [7] were 17.3% and 4.3%, respectively.
On to `COc1cccc2c1C(=O)c1c(O)c3c(c(O)c1C2=O)C[C@@](O)(C(=O)CO)C[C@@H]3O[C@H]1C[C@H](N)[C@H](O)[C@H](C)O1`, for which the result in [10] was Active.
Turning to `CC[N+](C)(CC)CCC[n+]1c(-c2ccccc2)c2cc(N)ccc2c2ccc(N)cc21`, the result in [11] was Active.
On to `Oc1ccc2oc(-c3ccc4c(c3)OCO4)cc2c1`, for which the inhibition of growth at 10 µM in test [6] turned out to be 3.6%; in test [7] it was 11.2%.
Consider `CC[C@@]1(O)C(=O)OCc2c1cc1n(c2=O)Cc2cc3cc(O)ccc3nc2-1`, for which the inhibition result in test [12] is “Active”.
In the case of `OCc1ccc(-c2cc3cc(O)ccc3o2)cc1`, the inhibition of growth at 10 µM in test [6] was determined as 10.6%; in test [7], 42.6%.
The corresponding values for `Oc1ccc(-c2cc3cc(O)ccc3o2)cc1` are 29.5% and 13.8%.
For the compound `Oc1ccc2cc(-c3ccc4c(c3)OCO4)ccc2c1`, the 50% inhibitory concentration (IC50) amounted to 10.8 µM in [2], 2.6 µM in [3], 3.9 µM in [4] and 8.5 µM in [5]. In addition, the inhibition of growth at 10 µM in [6] amounted to 66.3%; in test [7], 86.9%.
